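Dose response: 5 concentrations. Exposure: 48 h. Format: 96-well plates. Endpoint: linear interpolation; highest concentration if not reached. The concentration for full growth arrest is given as TGI.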
What was measured:
Experiment in all cases: DTP human tumour cell line panel, 48 h
SF-295 CNS = system: SF-295 CNS
A498 renal = system: A498 renal
CCRF-CEM leukemia = system: CCRF-CEM leukemia
T-47D breast = system: T-47D breast
NCI/ADR-RES ovarian = system: NCI/ADR-RES ovarian
K-562 leukemia = system: K-562 leukemia
UACC-257 melanoma = system: UACC-257 melanoma
CAKI-1 renal = system: CAKI-1 renal
TK-10 renal = system: TK-10 renal
NCI-H522 lung = system: NCI-H522 lung
MDA-MB-231 breast = system: MDA-MB-231 breast
NCI-H460 lung = system: NCI-H460 lung
SNB-19 CNS = system: SNB-19 CNS
SK-OV-3 ovarian = system: SK-OV-3 ovarian
NCI-H226 lung = system: NCI-H226 lung
HCT-116 colon = system: HCT-116 colon
LOX IMVI melanoma = system: LOX IMVI melanoma
UACC-62 melanoma = system: UACC-62 melanoma
NCI-H23 lung = system: NCI-H23 lung
MCF7 breast = system: MCF7 breast
HS 578T breast = system: HS 578T breast
786-0 renal = system: 786-0 renal
MDA-N = system: MDA-N
OVCAR-5 ovarian = system: OVCAR-5 ovarian
IGROV1 ovarian = system: IGROV1 ovarian
SN12C renal = system: SN12C renal
MOLT-4 leukemia = system: MOLT-4 leukemia
HCT-15 colon = system: HCT-15 colon
SF-539 CNS = system: SF-539 CNS
SR leukemia = system: SR leukemia
BT-549 breast = system: BT-549 breast
RXF 393 renal = system: RXF 393 renal
HOP-62 NSCLC = system: HOP-62 NSCLC
HOP-92 NSCLC = system: HOP-92 NSCLC
ACHN renal = system: ACHN renal
RPMI-8226 leukemia = system: RPMI-8226 leukemia
SK-MEL-5 melanoma = system: SK-MEL-5 melanoma
EKVX NSCLC = system: EKVX NSCLC
A549 NSCLC = system: A549 NSCLC
UO-31 renal = system: UO-31 renal
HL-60(TB) leukemia = system: HL-60(TB) leukemia
SK-MEL-28 melanoma = system: SK-MEL-28 melanoma
OVCAR-4 ovarian = system: OVCAR-4 ovarian
OVCAR-3 ovarian = system: OVCAR-3 ovarian
COLO 205 colon = system: COLO 205 colon
SW-620 colon = system: SW-620 colon
HT29 colon = system: HT29 colon
U251 CNS = system: U251 CNS
M14 melanoma = system: M14 melanoma
DU-145 prostate = system: DU-145 prostate
SF-268 CNS = system: SF-268 CNS
MDA-MB-435 = system: MDA-MB-435
KM12 colon = system: KM12 colon
OVCAR-8 ovarian = system: OVCAR-8 ovarian
MALME-3M melanoma = system: MALME-3M melanoma
HCC-2998 colon = system: HCC-2998 colon
PC-3 prostate = system: PC-3 prostate
SK-MEL-2 melanoma = system: SK-MEL-2 melanoma

Measured: TGI

CN(C)CCNc1nc2c(c(=O)n(C)c(=O)n2C)n1C
not listed: HCC-2998 colon | PC-3 prostate | SK-MEL-2 melanoma
> 100 µM: all other assays above

COC(=O)/C=C/[C@H]1[C@H](C)N1S(=O)(=O)c1ccc(C)cc1 (stereo partly specified)
not listed: HOP-92 NSCLC | UO-31 renal
> 100 µM: all other assays above
